According to patent US7786107B2, “Modulators of muscarinic receptors” (Vertex Pharmaceuticals Incorporated, priority 2006, dated 2010):

Key:
[1] = biological target: T1, M4 muscarinic receptor (Homo sapiens, UniProt P08173); test: Functional mobilization of intracellular calcium (FLIPR) in CHO cells expressing M4; type: cell-based; conditions: for EC50: CHO cells expressing M4, calcium mobilization; for Emax: CHO, 100% efficacy is the maximum response obtained with the Carbachol control
T1 construct: expressed in transfected cells; host or cells: CHO
T1 sequence (P08173 1-479): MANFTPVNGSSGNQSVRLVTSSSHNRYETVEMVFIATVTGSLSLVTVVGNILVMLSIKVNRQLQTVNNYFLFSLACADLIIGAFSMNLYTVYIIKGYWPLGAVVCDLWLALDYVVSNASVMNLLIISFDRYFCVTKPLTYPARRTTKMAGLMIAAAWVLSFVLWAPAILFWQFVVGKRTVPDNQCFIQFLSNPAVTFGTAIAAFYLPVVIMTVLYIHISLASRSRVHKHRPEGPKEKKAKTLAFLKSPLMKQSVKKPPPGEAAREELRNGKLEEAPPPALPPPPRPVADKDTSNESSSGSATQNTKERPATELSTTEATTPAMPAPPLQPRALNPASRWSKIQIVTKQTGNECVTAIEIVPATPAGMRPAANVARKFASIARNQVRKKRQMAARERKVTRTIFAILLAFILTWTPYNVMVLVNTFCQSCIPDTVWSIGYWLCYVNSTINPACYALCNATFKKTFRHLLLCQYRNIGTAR
Protocol: (§1) Functional Mobilization of Intracellular Calcium to Determine Muscarinic Receptor Activity:
(§2) CHO cells expressing muscarinic receptors (M1 to M5) are grown as monolayers in tissue culture flasks at 37° C. in a humidified atmosphere containing 5% CO2 and passaged every 3-5 days. The growth media is Dulbecco's modified eagles medium (DMEM, Gibco Cat#12430-054), containing 25 mM Hepes and supplemented with Fetal Bovine Serum (Hyclone, Cat#SH30071.03), 0.1 mM of MEM non-essential amino acids (GIBCO, Cat#11140-050), 1 mM MEM Sodium Pyruvate (GIBCO Cat#11360-070) and 100 units/ml of Penicillin G and 100 μg/ml of Streptomycin (GIBCO Cat#15140-122). The recombinant muscarinic receptor cell lines are grown under antibiotic pressure with media containing 25 μg/ml zeocin and 500 μg/ml G418 (MI-CHO), 4 μg/ml puromycin, 50 μg/ml zeocin and 2.5 μg/ml blasticidin (M2 and M4-CHO) or 50 μg/ml zeocin and 4 μg/ml puromycin (M3 and M5-CHO).
(§3) Cells are harvested at 80-90% confluence using Versene (GIBCO Cat#15040-066), collected by centrifugation and seeded 18-24 hours prior to running the calcium assay at a density of 5,000-10,000 cells/well in […], clear-bottomed 384-well plates (BD Biocoat, poly-D-lysine, Cat#356663). The day of the experiment, the cells are washed with a plate washer (Bioteck Instruments, ELX 405) using bath 1 buffer (140-mM NaCl, 4.5-mM KCl, 2-mM CaCl2, 1-mM MgCl2, 10-mM Hepes-Na, 10-mM Glucose, pH 7.4, with NaOH) containing 1 mM Probenecid. Next, the calcium dye Fluo-3 (25 μl well of Fluo-3 AM at 4 μM, Molecular Probes F-1241, in Bath 1 buffer containing 1 mM Probenecid) is added to the 25 μl of Bath 1 remaining in each well after the plate wash and the dye is loaded at 37° C. in the tissue culture incubator for 60-90 min. The fluorescent dye is removed using the plate washer with Bath 1 containing 1 mM Probenecid, leaving 25 μl/well of this solution after the wash. Alternatively, cells can be loaded with the calcium indicator from Molecular Devices (Calcium 3 Assay Reagents, Cat #R7181) adding 5 μl of a 5× solution dye in Bath 1 containing 1 mM Probenecid (10 ml per dye flask cat#R7182 to generate a solution 20×) to 20 μl of the same buffer. After loading for 60 min, the experiment can be run without having to remove the dye.
(§4) Compounds are prepared at a 2× fold concentration in a 96-well plate (round bottom, Costar Corning cat#3656), by reconstituting the pre-spotted compounds in bath 1 containing 1 mM probenecid. The final concentration DMSO is 0.5%, and the amount of DMSO is normalized across the assay plate. To determine an agonist action of the compounds on muscarinic receptors, the reconstituted compounds are added (25 μl compound/well) to the cell assay plate (containing 25 μl/well) using the multi-channel robotic system of the FLIPR 3 Instrument (Molecular Devices, Sunnyvale, Calif.). To determine a functional inhibitory action of the compounds on muscarinic receptors, the reconstituted compounds are added (25 μl compound/well) to the assay plate and pre-incubated for 15 min prior to adding 25 μl of Carbachol at 3× the EC80 for each muscarinic subtype. Alternatively, the compounds can be co-applied simultaneously with the agonist. In both assay modes, the fluorescence is recorded for 60 sec (excitation wavelength is […] and emission wavelength 540 nm) using the FLIPR 3 instrument.
(§5) The potency, efficacy and selectivity of the muscarinic compounds were evaluated by screening the compound activity across the whole family (M1 to M5 cells). Compounds were also screened for activity on other proteins such as other GPCRs and ion channels to determine selectivity on M4 receptors.
(§6) Examples of activities and efficacies of the muscarinic compounds of formulae (I, I-A, and I-B) on modulating M1 and M4 receptors are shown below in Table 4. […]

[2] = biological target: T2, M1 muscarinic receptor (Homo sapiens, UniProt P11229); test: Functional mobilization of intracellular calcium (FLIPR) in CHO cells expressing M1; type: cell-based; conditions: for EC50: CHO cells expressing M1, calcium mobilization; for Emax: CHO, 100% efficacy is the maximum response obtained with the Carbachol control
T2 construct: expressed in transfected cells; host or cells: CHO
T2 sequence (P11229 1-460): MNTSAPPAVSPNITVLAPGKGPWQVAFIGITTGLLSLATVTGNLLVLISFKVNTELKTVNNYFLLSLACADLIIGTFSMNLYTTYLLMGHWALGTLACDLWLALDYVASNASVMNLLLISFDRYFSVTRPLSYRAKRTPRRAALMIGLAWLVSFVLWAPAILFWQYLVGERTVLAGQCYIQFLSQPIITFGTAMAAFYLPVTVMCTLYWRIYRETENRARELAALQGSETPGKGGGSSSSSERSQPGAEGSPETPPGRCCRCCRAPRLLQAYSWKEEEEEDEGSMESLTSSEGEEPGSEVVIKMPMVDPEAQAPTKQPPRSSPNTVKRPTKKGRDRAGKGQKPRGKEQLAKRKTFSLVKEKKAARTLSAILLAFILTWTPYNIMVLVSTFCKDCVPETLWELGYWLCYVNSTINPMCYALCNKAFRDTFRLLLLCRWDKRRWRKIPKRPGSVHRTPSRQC
Protocol: as §1, §2, §3, §4, §5, §6

SMILES | EC50 [1] [nM] | Emax [1] [%] | EC50 [2] [nM] | Emax [2] [%]
O=C1CCC2(CCN(C3CC4CCC(C4)C3)CC2)c2ccccc2N1 (centres unmarked) [Compound 29] | < 2000 | 25 to 100 | < 2000 | 25 to 100
CCOC(=O)N1C2CCC1CC(N1CCC3(CCC(=O)N(C)c4ccccc43)CC1)C2 (centres unmarked) [Compound 30] | < 2000 | 25 to 100 | < 2000 | 25 to 100
CCOC(=O)N1CCC(N2CCC3(CCCN(C(=O)N(C)C)c4ccccc43)CC2)CC1 [Compound 23] | < 2000 | 25 to 100 | 2000 to 10000 | 25 to 100
CCOC(=O)N1C2CCC1CC(N1CCC3(CCCN(C(N)=O)c4ccccc43)CC1)C2 (centres unmarked) [Compound 22] | < 2000 | 25 to 100 | < 2000 | 25 to 100
CCOC(=O)N1CCC(N2CCC3(CCC(=O)Nc4ccccc43)CC2)CC1 [Compound 18] | < 2000 | 25 to 100 | < 2000 | 25 to 100
CC(=O)N1CCCC2(CCN(CC3CCCCC3)CC2)c2ccccc21 [Compound 7] | 2000 to 10000 | < 25 | > 10000 | < 25
NC(=O)N1CCCC2(CCN(CC3CC4C=CC3C4)CC2)c2ccccc21 (centres unmarked) [Compound 2] | < 2000 | 25 to 100 | 2000 to 10000 | < 25
CCOC(=O)N1CCC(N2CCC3(CCC(=O)N(C)c4ccccc43)CC2)CC1 [Compound 21] | 2000 to 10000 | 25 to 100 | 2000 to 10000 | 25 to 100
CN1C(=O)CCC2(CCN(C3CCCCCC3)CC2)c2ccccc21 [Compound 12] | < 2000 | 25 to 100 | 2000 to 10000 | 25 to 100
CN(C)C(=O)N1CCCC2(CCN(C3CC4CCC(C4)C3)CC2)c2ccccc21 (centres unmarked) [Compound 25] | < 2000 | 25 to 100 | > 10000 | < 25
NC(=O)N1CCCC2(CCN(C3CCCCCC3)CC2)c2ccccc21 [Compound 6] | > 10000 | < 25 | > 10000 | < 25
NC(=O)N1CCCC2(CCN(C3C[C@@H]4CC[C@@H]3C4)CC2)c2ccccc21 (some centres unmarked) [Compound 26] | > 10000 | < 25 | > 10000 | < 25
CN1C(=O)CCC2(CCN(CCC(C)(C)C)CC2)c2ccccc21 [Compound 3] | < 2000 | 25 to 100 | 2000 to 10000 | 25 to 100
CCOC(=O)N1C2CCC1CC(N1CCC3(CCC(=O)Nc4ccccc43)CC1)C2 (centres unmarked) [Compound 4] | < 2000 | 25 to 100 | < 2000 | 25 to 100
CC(=O)N1CCCC2(CCN(C3C[C@@H]4CC[C@@H]3C4)CC2)c2ccccc21 (some centres unmarked) [Compound 17] | > 10000 | < 25 | > 10000 | < 25
CC(=O)N1CCCC2(CCN(CC3CC4C=CC3C4)CC2)c2ccccc21 (centres unmarked) [Compound 9] | < 2000 | 25 to 100 | > 10000 | < 25
NC(=O)N1CCCC2(CCN(C3CC4CCC(C4)C3)CC2)c2ccccc21 (centres unmarked) [Compound 16] | < 2000 | 25 to 100 | 2000 to 10000 | 25 to 100
CCOC(=O)N1C2CCC1CC(N1CCC3(CCCN(C(=O)N(C)C)c4ccccc43)CC1)C2 (centres unmarked) [Compound 10] | 2000 to 10000 | < 25 | > 10000 | < 25
CN1C(=O)CCC2(CCN(C3C[C@@H]4CC[C@@H]3C4)CC2)c2ccccc21 (some centres unmarked) [Compound 35] | < 2000 | 25 to 100 | > 10000 | < 25
O=C1CCC2(CCN(C3C[C@@H]4CC[C@@H]3C4)CC2)c2ccccc2N1 (some centres unmarked) [Compound 1] | < 2000 | 25 to 100 | < 2000 | > 100
CC(=O)N1CCCC2(CCN(CCC(C)(C)C)CC2)c2ccccc21 [Compound 32] | < 2000 | 25 to 100 | 2000 to 10000 | < 25
O=C1CCC2(CCN(CC3CC4C=CC3C4)CC2)c2ccccc2N1 (centres unmarked) [Compound 5] | < 2000 | 25 to 100 | 2000 to 10000 | 25 to 100
CC(C)(C)CCN1CCC2(CCCN(C(N)=O)c3ccccc32)CC1 [Compound 13] | < 2000 | 25 to 100 | 2000 to 10000 | 25 to 100
CCOC(=O)N1C2CCC1CC(N1CCC3(CCCN(C(C)=O)c4ccccc43)CC1)C2 (centres unmarked) [Compound 28] | < 2000 | 25 to 100 | < 2000 | 25 to 100
CN1C(=O)CCC2(CCN(C3CC4CCC(C4)C3)CC2)c2ccccc21 (centres unmarked) [Compound 19, 1′-(bicyclo[3.2.1.]octan-3-yl)-1-methyl-3,4-dihydrospiro[benzo[b]azepine-5,4′-piperidin]-2(1H)-one] | < 2000 | 25 to 100 | < 2000 | 25 to 100
CC(C)(C)CCN1CCC2(CCC(=O)Nc3ccccc32)CC1 [Compound 36, 1′-(3,3-dimethylbutyl)-3,4-dihydrospiro[benzo[b]azepine-5,4′-piperidin]-2(1H)-one] | < 2000 | 25 to 100 | < 2000 | 25 to 100
CN(C)C(=O)N1CCCC2(CCN(C3CCCCCC3)CC2)c2ccccc21 [Compound 11] | > 10000 | < 25 | > 10000 | < 25
CCOC(=O)N1CCC(N2CCC3(CCCN(C(N)=O)c4ccccc43)CC2)CC1 [Compound 8] | 2000 to 10000 | 25 to 100 | < 2000 | 25 to 100
CC(=O)N1CCCC2(CCN(CCC(C)C)CC2)c2ccccc21 [Compound 34] | > 10000 | < 25 | > 10000 | < 25
